Source: patent US11324746B2, “Use of anagrelide for treating cancer” (Arovella Therapeutics Limited, priority 2014, dated 2022)
Converted amounts (≈) assume the structure as drawn. “And” between values parts separate entries of the source, which are not always exact repeats. Equal entries are not always repeated. Where two headings read alike, the source gives them in different places.

Legend:
[1] = up to concentration of 1 μM; cited from earlier work
[2] = cited from earlier work; for peak plasma levels: after a typical 1 mg clinical dose
cancer cells = settings: mice; cited from earlier work
[3] = system: various cancer cell lines; settings: in vitro; WO2014/183673; read-out: IC50 apoptosis in cancer cell lines; cited from earlier work
[4] = cited from earlier work
[5] = Aqueous solubility of anagrelide; assay type: physicochemical
VEGF = settings: ET patients; HU 1.25 g/day, IFN-α 1.5×10^6 units/day, anagrelide 1.5 mg/day; cited from earlier work
[6] = cited from earlier work; remark: listed apart in the source
[7] = cited from earlier work; remark: listed apart in the source
PF4 = settings: ET patients; HU 1.25 g/day, IFN-α 1.5×10^6 units/day, anagrelide 1.5 mg/day; cited from earlier work
PDE III = settings: cited from earlier work; for IC50 inhibition of PDE III / IC50: in vitro; for IC50: read-out: IC50 inhibition of PDE III
COV362 cells = assay: Transmigration assay of COV362 cells towards MK cultures (modified Boyden chamber); assay type: cell-based, human
Experimental: Transmigration assay—Transmigration of human ovarian cancer cells, COV362 cells (COVs), was examined in a well established model of cancer cell migration (Hart et al 2005) and Kramer et al 2013) which employed the modified Boyden chamber described above but using inserts with a larger 8μm pore PET membrane. […] In this case pre-expanded haematopoietic cells were grown for 7 days in MK medium in the wells of the companion plate prior to placement of the inserts. Inserts were then positioned inside these MK-containing wells or in parallel wells filled with and equivalent volume of MK medium alone. A suspension of 0.35 mL COVs cells made in plasma-free MK medium at a density of 2.86×10^5cells/ml was then loaded onto the inserts and allowed to trans-migrate through the PET membrane for up to 24 h at 37° C. in a tissue culture incubator. At various time points the transmigration assay was terminated by removing the insert from the well of the companion plate and aspirating its contents. After washing the inserts with phosphate-buffered saline (PBS) non-migrating cells attached to the upper side of the PET membrane were scraped off with cotton swabs soaked in PBS. […] Bright field digital photomicrographs were taken in five random fields at 100× magnification and the average number of cells per field was determined by manual counting.

megakaryocytes = settings: cited from earlier work
[8] = system: megakaryocytes (MKs) from human umbilical cord blood-derived CD34+ haematopoietic cells; assay: Co-culture of COV362 cells and developing megakaryocytes (MK expansion, CD61 flow cytometry); assay type: cell-based; settings: anagrelide 1 μM
Experimental: Cells and drug treatment—Megakaryocytes (MKs) were generated ex-vivo essentially as previously described (Ahluwalia M et al 2010). In brief, to promote terminal megakaryocytic differentiation pre-expanded human umbilical cord blood-derived CD34^+ haematopoietic cells were cultured for 7 days in Stemspan™ SFEM II medium (Stem Cell Technologies) supplemented with 1% human umbilical cord blood plasma and 40 ng/ml thrombopoietin (TPO) unless otherwise indicated (MK medium). […]
The human ovarian cancer cell line COV362 was grown in Iscove's modified Dulbecco's medium (IMDM) supplemented with 2 mM glutamine and 10% foetal bovine serum (FBS). Cell cultures were maintained at 37° C. in a humidified incubator under 5% CO2/95% air.
Co-culture experiments—Co-culture of COV362 cells (COVs) and developing MKs was carried out in a modified Boyden Chamber (BD Falcon, BD Biosciences, Oxford, UK) consisting of a cup-shaped cell culture insert resting inside the well of a 24-well companion plate, with the bottom of the insert made of a permeable microporous polyethylene terephthalate (PET) membrane having a pore size of 0.4 μm.
In experiments examining the effects of COVs on MK development, COVs were seeded in the companion plate at various cells densities and grown for 4 days prior to mounting the inserts. Then, the medium in the companion plate was removed and replaced with fresh MK medium. Immediately thereafter the pre-expanded haematopoietic cells were seeded in the insert. After seven days of co-culture the cells growing in the inserts were harvested for analysis of MK development.
Analysis of megakaryocyte development—Cell density was determined using a Casy TT Cell counter (Innovatis, Germany) set with a lower cut-off limit of ˜7.5 μm. MK-specific antigen expression was monitored by flow cytometry using a fluorescein isothiocyanate-conjugated anti-CD61 antibody (clone Y2/51, Dako, Ely, UK) as previously described (Wang G et al 2005). The number of MKs was calculated by multiplying the total number of cells in the culture by the fraction of CD61 positive cells.

[9] = cited from earlier work; remark: listed apart in the source
ovarian cancer = settings: mouse models of ovarian cancer; cited from earlier work
[10] = human, in vivo; cited from earlier work

Q: Which apoptopic effects [1] does the source give for `O=C1CN2Cc3c(ccc(Cl)c3Cl)N=C2N1` [anagrelide] here?
A: Its apoptopic effects is “no apoptopic effects”.

Q: What about the peak plasma levels [2] of the same compound?
A: Its peak plasma levels is 16 nM and ~4 ng/mL.

Q: And the “circulation time of cancer cells” value (cancer cells)?
A: The value was “increase in circulation time of cancer cells”.

Q: And the IC50 [3]?
A: The IC50 was 100 nM.

Q: What about the oral bioavailability [4] of the same compound?
A: The oral bioavailability was “less than 50%”.

Q: What about the “FDA Biopharmaceutics Classification System class” value [5] of the same compound?
A: Its value is “low solubility/high permeability”.

Q: And the “VEGF levels after treatment” value (VEGF)?
A: Its value is “reduced the PF4 and VEGF levels to normal”.

Q: What about the “patients discontinuing drug treatment due to cardiovascular side-effects” value ([6]; Birgegard et al, 2004) of the same compound?
A: The value was about 25%.

Q: And the “patients with idiopathic cardiomyopathy” value ([6]; of 434 patients with essential thrombocythaemia and polycythemia vera, Jurgens et al 2004)?
A: The value was 11.

Q: And the aqueous solubility ([7]; between pH 4-8)?
A: Its aqueous solubility is about 1.0 µg/mL (≈ 3.9 µM).

Q: What about the aqueous solubility ([7]; pH1) of the same compound?
A: Its aqueous solubility is 236 µg/mL (≈ 922 µM).

Q: What about the water solubility ([7]; pH7) of the same compound?
A: Its water solubility is about 1.0 µg/mL (≈ 3.9 µM).

Q: And the water solubility ([7]; pH of ~3)?
A: The water solubility was 250 µg/mL (≈ 976 µM).

Q: And the “PF4 levels after treatment” value (PF4)?
A: The value was “reduced the PF4 and VEGF levels to normal”.

Q: And the “IC50 inhibition of PDE III” value (PDE III)?
A: Its value is 8.2 ng/mL.

Q: What about the IC50 (PDE III) of the same compound?
A: Its IC50 is 32 nM.

Q: What about the “attractant properties for COVs of MK cultures grown with drug” value (COV362 cells; anagrelide 1 μM, overnight incubation (FIG. 3)) of the same compound?
A: The value was “no attractant properties”.

Q: And the “attractant properties for COVs of MKs grown with drug” value (COV362 cells; clinically relevant concentrations, 16 h (FIG. 4))?
A: Its value is “loss of attractant properties”.

Q: What about the “in vitro anti-megakaryocytic IC50” value (megakaryocytes) of the same compound?
A: Its value is 7 ng/mL.

Q: What about the IC50 (megakaryocytes; read-out: in vitro anti-megakaryocytic IC50) of the same compound?
A: Its IC50 is 26 nM.

Q: What about the inhibition at 1 µM ([8]; Homo sapiens, 168 h, absence of COVs, 7 days, read-out: inhibition of thrombopoietin driven MK expansion) of the same compound?
A: Its inhibition at 1 µM is about 50%.

Q: What about the “stimulatory effects of COVs on MK expansion” value ([8]; COVs seeded at 1000cells/mL) of the same compound?
A: The value was “completely abolished”.

Q: And the “expected increase in MK expansion with COVs” value ([8]; COVs seeded at 3000cells/mL)?
A: The value was “more than halved”.

Q: What does the source list for `NC(=O)NO` [HU, hydroxyurea]?
A: VEGF levels after treatment (VEGF): Neither HU nor IFα brought PF4 and VEGF down; PF4 levels after treatment (PF4): Neither HU nor IFα brought PF4 and VEGF down

Q: Which results are given for `Cc1ncc2n1-c1ccc(Cl)cc1C(c1ccccc1F)=NC2` [midazolam]?
A: bioavailablity ([9]; given orally): ~30%; bioavailablity ([9]; intranasal spray): 87%

Q: With `O=C1NC2=Nc3ccc(Cl)c(Cl)c3CN2C1O` (stereo not drawn) [3-hydroxy anagrelide] as the compound, how does the peak plasma levels ([2]; listed as metabolite) read?
A: Its peak plasma levels is 29 nM and ~8 ng/mL.

Q: And the “plasma concentrations of metabolite relative to parent drug” value ([2]; clinical practice, Martinez-Selles et al, 2013)?
A: The value was 2-3 fold.

Q: What about the “PDEIII inhibitory potency relative to anagrelide” value (PDE III; Wang et al, 2005) of the same compound?
A: Its value is about 40 fold.

Q: And the “cardiostimulant potency relative to the parent drug” value (PDE III)?
A: The value was 40 fold.

Q: What about the “IC50 inhibition of PDE III” value (PDE III) of the same compound?
A: The value was 0.2 ng/mL.

Q: What about the IC50 (PDE III) of the same compound?
A: Its IC50 is 0.7 nM.

Q: Which platelet count (ovarian cancer) does the source give for siltuximab: IL-6 antibody here?
A: The platelet count was “significantly reduced”.

Q: And the tumour growth (ovarian cancer)?
A: The tumour growth was “significantly reduced”.

Q: What about the “upper respiratory infections, share of patients” value [10] of the same compound?
A: The value was over 20%.
